In brackets after ≈: the same amount, converted by molar mass. Activity calls are given as the source filed them. The rule behind the calls is not given here.
Tests used:
Plasmodium falciparum [1] = experiment: Antimalarial activity against chloroquine-resistant Plasmodium falciparum K1 after 24 hrs by hypoxanthine incorporation assay; assay type: functional, organism-based; conditions: K1, 24 h
Plasmodium falciparum [2] = experiment: Antimalarial activity against chloroquine-sensitive Plasmodium falciparum NF54 after 24 hrs by hypoxanthine incorporation assay; assay type: functional, organism-based; conditions: NF54, 24 h
Plasmodium berghei [3] = experiment: Antimalarial activity against Plasmodium berghei ANKA expressing GFP infected in Sprague-Dawley rat assessed as reduction in parasitemia at 50 mg/kg, po administered as 4 doses measured on day 4 post-infection by flow cytometry; assay type: functional; set-up: scale not given: the % may be the effect or the level left
[4] = Partition coefficient, log D of the compound at pH 7.4 by phase gradient HPLC analysis; assay type: physicochemical; conditions: octanol/water
[5] = Kinetic solubility of the compound in phosphate buffer after 30 mins by nephelometry at pH 6.5; assay type: physicochemical; conditions: read-out: Kinetic_solubility
[6] = Half life in human liver microsomes at 1 uM; assay type: ADME, Microsome
[7] = Intrinsic clearance in human liver microsomes at 1 uM up to 60 mins; assay type: ADME, Microsome; conditions: read-out: CLH
Plasmodium berghei [8] = experiment: Antimalarial activity against Plasmodium berghei ANKA expressing GFP infected in Sprague-Dawley rat assessed as mean survival days of host at 50 mg/kg, po administered as 4 doses; assay type: functional
Plasmodium falciparum [9] = experiment: Antimalarial activity against ring stage Plasmodium falciparum Dd2 at 1.82 uM after 72 hrs by DAPI-staining based confocal microscopy; assay type: functional
Plasmodium falciparum [10] = experiment: Antimalarial activity against ring stage Plasmodium falciparum 3D7 at 1.82 uM after 72 hrs by DAPI-staining based confocal microscopy; assay type: functional
[11] = Plasma protein binding in human by reverse phase gradient HPLC analysis; assay type: ADME, cell-free; conditions: read-out: PPB (converted)
Plasmodium berghei [12] = experiment: Antimalarial activity against Plasmodium berghei ANKA expressing GFP infected in Sprague-Dawley rat assessed as reduction in parasitemia at 100 mg/kg, po administered as single dose measured on day 3 post-infection by flow cytometry; assay type: functional; set-up: scale not given: the % may be the effect or the level left
Plasmodium berghei [13] = experiment: Antimalarial activity against Plasmodium berghei ANKA expressing GFP infected in Sprague-Dawley rat assessed as mean survival days of host at 100 mg/kg, po administered as single dose; assay type: functional
Plasmodium berghei [14] = experiment: Antimalarial activity against Plasmodium berghei ANKA expressing GFP infected in Sprague-Dawley rat assessed as reduction in parasitemia at 30 mg/kg, po administered as single dose measured on day 3 post-infection by flow cytometry; assay type: functional; set-up: scale not given: the % may be the effect or the level left
Plasmodium berghei [15] = experiment: Antimalarial activity against Plasmodium berghei ANKA expressing GFP infected in Sprague-Dawley rat assessed as mean survival days of host at 30 mg/kg, po administered as single dose; assay type: functional
Plasmodium berghei [16] = experiment: Antimalarial activity against Plasmodium berghei ANKA expressing GFP infected in Sprague-Dawley rat assessed as host survival at 30 mg/kg, po administered as single dose measured 6 days post-infection; assay type: functional, organism-based; set-up: dose 30 mg/kg
Plasmodium berghei [17] = experiment: Antimalarial activity against Plasmodium berghei ANKA expressing GFP infected in Sprague-Dawley rat assessed as reduction in parasitemia at 10 mg/kg, po administered as single dose measured on day 3 post-infection by flow cytometry; assay type: functional; set-up: scale not given: the % may be the effect or the level left
Plasmodium berghei [18] = experiment: Antimalarial activity against Plasmodium berghei ANKA expressing GFP infected in Sprague-Dawley rat assessed as mean survival days of host at 10 mg/kg, po administered as single dose; assay type: functional
Plasmodium berghei [19] = experiment: Antimalarial activity against Plasmodium berghei ANKA expressing GFP infected in Sprague-Dawley rat assessed as reduction in parasitemia at 3 mg/kg, po administered as single dose measured on day 3 post-infection by flow cytometry; assay type: functional; set-up: scale not given: the % may be the effect or the level left
Plasmodium berghei [20] = experiment: Antimalarial activity against Plasmodium berghei ANKA expressing GFP infected in Sprague-Dawley rat assessed as mean survival days of host at 3 mg/kg, po administered as single dose; assay type: functional
Plasmodium berghei [21] = experiment: Antimalarial activity against Plasmodium berghei ANKA expressing GFP infected in Sprague-Dawley rat assessed as host survival at 3 mg/kg, po administered as single dose measured 6 days post-infection; assay type: functional, organism-based; set-up: dose 3 mg/kg
Plasmodium berghei [22] = experiment: Antimalarial activity against Plasmodium berghei ANKA expressing GFP infected in Sprague-Dawley rat assessed as total cure from parasite at 50 mg/kg, po administered as 4 doses measured on day 30 post-infection by flow cytometry; assay type: functional, organism-based; set-up: dose 50 mg/kg

SMILES	IC50 (Plasmodium falciparum [1]) [nM]	IC50 (Plasmodium falciparum [2]) [nM]	chromatographic logD [4]	solubility kinetic at 0.5 h [5] [µg/mL]	half-life at 1 µM [6] [h]	microsomal CLint at 1 µM [7] [µL/min/mg]	fraction unbound [11]	further results
Cc1nc2cc(-c3cc(-c4ccc(S(C)(=O)=O)cc4)cnc3N)ccc2s1	330	390	–	–	–	–	–	–
CS(=O)(=O)c1ccc(-c2cnc(N)c(-c3ccc(S(C)(=O)=O)cc3)c2)cc1	80	80	2	6.3 (≈ 15.7 µM)	> 5.83	< 5	–	Activity (Plasmodium berghei [3]): 99.6%; MSD (Plasmodium berghei [8]): 15 days
COc1ccc(-c2cnc(N)c(-c3ccc(O)c(OC)c3)c2)cc1	–	–	–	–	–	–	–	Activity (Plasmodium falciparum [9]): 50%; Activity (Plasmodium falciparum [10]): 50%
CS(=O)(=O)c1ccc(-c2cnc(N)c(-c3ccc(OCCN4CCCC4)cc3)c2)cc1	2160	2070	–	–	–	–	–	–
CS(=O)(=O)c1ccc(-c2cnc(N)c(-c3ccc(N4CCCC4)nc3)c2)cc1	540	456	–	–	–	–	–	–
CNC(=O)c1ccc(-c2cc(-c3ccc(S(C)(=O)=O)cc3)cnc2N)cc1	71	79	1.7	25 (≈ 65.5 µM)	> 5.83	< 5	0.182	Activity (Plasmodium berghei [3]): 99.7%; MSD (Plasmodium berghei [8]): 9 days; Activity (Plasmodium berghei [12]): 98%; MSD (Plasmodium berghei [13]): 6 days; Activity (Plasmodium berghei [14]): 77%; MSD (Plasmodium berghei [15]): 7 days
CS(=O)(=O)c1ccc(-c2cnc(N)c(-c3ccoc3)c2)cc1	1120	1130	–	–	–	–	–	–
CS(=O)(=O)c1ccc(-c2cnc(N)c(-c3ccc(CO)nc3)c2)cc1	169	171	1.2	25 (≈ 70.3 µM)	> 4.17	< 7	0.541	–
CS(=O)(=O)c1ccc(-c2cnc(N)c(-c3cccc(C(F)(F)F)c3)c2)cc1	90	110	3.3	3.1 (≈ 7.9 µM)	> 4.17	< 7	0.059	–
COc1ncc(-c2cc(-c3ccc(S(C)(=O)=O)cc3)cnc2N)cc1Cl	2130	2230	–	–	–	–	–	–
CS(=O)(=O)c1ccc(-c2cnc(N)c(-c3ccc4nccnc4c3)c2)cc1	590	620	–	–	–	–	–	–
Nc1ncc(-c2ccc(Cl)cc2)cc1-c1cccc(CO)c1	–	–	–	–	–	–	–	Activity (Plasmodium falciparum [9]): 50%; Activity (Plasmodium falciparum [10]): 50%
CS(=O)(=O)c1ccc(-c2cnc(N)c(-c3ccc(C(N)=O)cc3)c2)cc1	30	30	1.5	25 (≈ 68 µM)	> 5.83	< 5	0.216	Activity (Plasmodium berghei [16]): inactive; Activity (Plasmodium berghei [3]): 66%; MSD (Plasmodium berghei [8]): 7 days; Activity (Plasmodium berghei [12]): 64%; MSD (Plasmodium berghei [13]): 7 days; Activity (Plasmodium berghei [14]): <40%; MSD (Plasmodium berghei [15]): 3 days
CN(C)CCNC(=O)c1ccc(-c2cc(-c3cc(F)c(F)c(F)c3)cnc2N)cc1	–	–	–	–	–	–	–	Activity (Plasmodium falciparum [9]): 50%; Activity (Plasmodium falciparum [10]): 50%
CS(=O)(=O)c1ccc(-c2cnc(N)c(-c3ccnc(C(F)(F)F)c3)c2)cc1	155	181	–	–	–	–	–	–
COc1ncccc1-c1cc(-c2ccc(S(C)(=O)=O)cc2)cnc1N	1110	1230	–	–	–	–	–	–
Cc1ccc(-c2cc(-c3ccc(S(C)(=O)=O)cc3)cnc2N)cc1C(F)(F)F	19	21	3.6	1.6 (≈ 3.94 µM)	1.25	23	0.031	–

SMILES	IC50 (Plasmodium falciparum [1]) [nM]	IC50 (Plasmodium falciparum [2]) [nM]	chromatographic logD [4]	solubility kinetic at 0.5 h [5] [µg/mL]	half-life at 1 µM [6] [h]	microsomal CLint at 1 µM [7] [µL/min/mg]	fraction unbound [11]	further results
CS(=O)(=O)c1ccc(-c2cnc(N)c(-c3ccc(C(F)(F)F)c(F)c3)c2)cc1	58	78	3.1	1.6 (≈ 3.9 µM)	2.05	14	0.052	–
CS(=O)(=O)c1ccc(-c2cnc(N)c(-c3ccc(C(F)(F)F)cc3Cl)c2)cc1	818	806	–	–	–	–	–	–
CS(=O)(=O)c1ccc(-c2cnc(N)c(-c3cccc(OC(F)(F)F)c3)c2)cc1	180	190	–	–	–	–	–	–
CS(=O)(=O)c1ccc(-c2cnc(N)c(-c3ccc(-n4cccn4)cc3)c2)cc1	220	230	–	–	–	–	–	–
COc1ncc(-c2cc(-c3ccc(S(C)(=O)=O)cc3)cnc2N)cn1	280	260	–	–	–	–	–	–
Cc1ccc(-c2cc(-c3ccc(S(C)(=O)=O)cc3)cnc2N)c2cccnc12	33	36	2.6	6.3 (≈ 16.2 µM)	1.77	16	0.056	–
CS(=O)(=O)c1ccc(-c2cnc(N)c(-c3ccc(C#N)cc3)c2)cc1	150	160	2.4	1.6 (≈ 4.58 µM)	> 5.83	< 5	–	Activity (Plasmodium berghei [3]): 99.7%; MSD (Plasmodium berghei [8]): >30 days; Activity (Plasmodium berghei [12]): >99.4%; MSD (Plasmodium berghei [13]): 14 days; Activity (Plasmodium berghei [14]): 99.1%; MSD (Plasmodium berghei [15]): 10 days
CCN(CC)CCCC(C)Nc1ccnc2cc(Cl)ccc12 (stereo not given) [CHLOROQUINE]	–	–	–	–	–	–	–	Activity (Plasmodium berghei [17]): 99.5%; MSD (Plasmodium berghei [18]): 7 days; Activity (Plasmodium berghei [19]): 83%; MSD (Plasmodium berghei [20]): 7 days; MSD (Plasmodium berghei [13]): 12 days; Activity (Plasmodium berghei [14]): 99.7%; MSD (Plasmodium berghei [15]): 9 days
CS(=O)(=O)c1ccc(-c2cnc(N)c(-c3cccc(C(=O)NCCO)c3)c2)cc1	634	603	–	–	–	–	–	–
CS(=O)(=O)c1ccc(-c2cnc(N)c(-c3ccc(N4CCOCC4)cc3)c2)cc1	2400	2460	–	–	–	–	–	–
CS(=O)(=O)c1ccc(-c2cnc(N)c(-c3cccnc3)c2)cc1	818	575	–	–	–	–	–	–
Cc1ccc(-c2cc(-c3ccc(S(C)(=O)=O)cc3)cnc2N)cn1	29	28	1.8	50 (≈ 147 µM)	> 5.83	< 5	0.256	Activity (Plasmodium berghei [19]): <40%; MSD (Plasmodium berghei [20]): 3 days; Activity (Plasmodium berghei [21]): inactive; Activity (Plasmodium berghei [3]): 99.8%; MSD (Plasmodium berghei [8]): >30 days; Activity (Plasmodium berghei [22]): Active; Activity (Plasmodium berghei [14]): 99.2%; MSD (Plasmodium berghei [15]): 8 days
CS(=O)(=O)c1ccc(-c2cnc(N)c(-c3ccc(F)nc3)c2)cc1	500	640	1.1	25 (≈ 72.8 µM)	4.12	< 7	0.431	–
CS(=O)(=O)c1ccc(-c2cnc(N)c(-c3ccc4nonc4c3)c2)cc1	520	470	–	–	–	–	–	–
CS(=O)(=O)c1ccc(-c2cnc(N)c(-c3cnc(N)nc3)c2)cc1	120	120	–	–	–	–	–	–
COc1cc(-c2cc(-c3ccc(S(C)(=O)=O)cc3)cnc2N)ccc1O	49	49	1.9	6.3 (≈ 17 µM)	1.72	17	0.172	Activity (Plasmodium falciparum [9]): >80%; Activity (Plasmodium falciparum [10]): >80%

Source: ChEMBL document CHEMBL2040800 (J Med Chem, 2012)
